Test results reported in US4649137A, “2-acylaminomethyl-1,4-benzodiazepine compounds, the preparation thereof, and pharmaceutical compositions containing them” (Kali-Chemie Pharma GmbH, priority 1981, dated 1987).

Assays:
rat = test: Arthritis pain test on the rat (inhibition of the arthritis pain); assay type: in vivo, rat (male, strain OFA); details: p.o., 3 hours after oral dosage
Method: ARTHRITIS PAIN TEST ON THE RAT
Male rats of the strain OFA with a weight of 160-180 g. are anaesthetised by administration of 20 mg./kg. i.p. of phenobarbital sodium. 0.1 ml. of a suspension of Mycobacterium Smegmae (S1043) in paraffin oil (0.6 mg. of Mycobact./0.1 ml. of oil) are injected intracutaneously into the left rear paw. 14 days later, when a marked secondary arthritis has developed, particularly in the right rear paw, the effects of the test substances are investigated. 30 minutes before administration of the test substances, a control measurement in undertaken in which the ankle joint of the right rear paw is flexed three times and the number of sounds given out is counted. […] 3 hours after oral dosage of the test substance, the flexion procedure is repeated. Animals which either give out sound only once or not at all are regarded as being protected against pain. Between 9 and 20 rats are used per dose and the ED50 (95% confidence range) is determined by the method of Litchfield and Wilcoxon) (1949). The ED50 is designated at that dose which produces protection in 50% of the animals treated.

mouse [1] = test: Determination of the minimum toxic dose; assay type: in vivo, mouse (male); details: p.o.; maximum dose 300 mg/kg; symptoms recorded for 24 hours
Method: DETERMINATION OF THE MINIMUM TOXIC DOSE
Maximum doses of 300 mg/kg. of the test substance are administered orally to male mice of 20-25 g. weight. The animals are observed carefully for toxicity symptoms for 3 hours. In addition, all symptoms and cases of death are recorded for a period of 24 hours after administration. Accompanying symptoms are also observed and recorded. If death- or toxic symptoms are observed, decreasing doses are administered to additional mice until no more toxic symptoms occur. The lowest dose which induces toxic symptoms is reported as the minimum toxic dose.

mouse [2] = test: Tail flick ray test on the mouse; assay type: in vivo; details: sc, 0.5 h, s.c., 30 minutes after administration
Method: TAIL FLICK RAY TEST ON THE MOUSE
The method is based on the procedure described by D'Amour and Smith (1941). However, non-fasting male and female mice having body weights of 16-25 g. are used instead of rats. 30 minutes before treatment with the test substance, each mouse is placed alone in a cylindrical vessel such that it cannot turn round and move forward. Its tail, lying in a narrow groove, projects out of the vessel. A particular point on the tail of each animal (at about 35 mm. from the root of the tail) is subjected to the radiant heat from a lamp of known intensity and temperature which is situated directly beneath the tail. The time in seconds required by the mouse to flick the tail out of the ray of light is determined twice, once 30 and once 15 minutes before subcutaneous administration of the test substance (10 mg./kg.). The mice for which the reaction times deviate by more than 25% are eliminated. The reaction times are again measured 15 and 30 minutes after treatment and an increase in the reaction times of more than 75% of the average values before treatment of the same mouse is regarded as an analgesic effect. The ED50 (95% confidence range) of each test substance 30 minutes after administration is regarded as that dose which increases the reaction time before treatment by more than 75% in 50% of the animals. The calculation is carried out in accordance with the method of Litchfield and Wilcoxon (1949).

| SMILES | ED50 (rat) | Minimum toxic dose in the mouse (mouse [1]) | ED50 (mouse [2]) |
| --- | --- | --- | --- |
| CN1c2ccccc2C(c2ccsc2)=NCC1CNC(=O)c1ccoc1 (stereo not shown) [Example 1, 1-Methyl-2-[(furan-3-carbonyl)-aminomethyl]-5-(3'-thienyl)-1H-2,3-dihydro-1,4-benzodiazepine] | 32 to 56 mg/kg | 200 mg/kg | 1 mg/kg |
| COc1ccc2c(c1)N(C)C(CNC(=O)c1ccccc1)CN=C2c1ccsc1 (stereo not shown) [Example 5, 8-Methoxy-1-methyl-2-benzoylaminomethyl-5-(3'-thienyl)-1H-2,3-dihydro-1,4-benzodiazepine] | ~10 mg/kg | 300 mg/kg | 2.7 mg/kg |
| CN1c2ccccc2C(c2ccsc2)=NCC1CNC(=O)c1ccc(C(F)(F)F)cc1 (stereo not shown) [Example 6, 1-Methyl-2-[(4'-trifluoromethylbenzoyl)-aminomethyl]-5-(3'-thienyl)-1H-2,3-dihydro-1,4-benzodiazepine] | 2 mg/kg | 300 mg/kg |  |
| CN1c2ccccc2C(c2ccsc2)=NCC1CNC(=O)c1ccc(C#N)cc1 (stereo not shown) [Example 7, 1-Methyl-2-[(4-cyanobenzoyl)-aminomethyl]-5-(3'-thienyl)-1H-2,3-dihydro-1,4-benzodiazepine] | 8.5 mg/kg | > 300 mg/kg |  |
| CN1c2ccccc2C(c2ccsc2)=NCC1CNC(=O)c1ccccc1 (stereo not shown) [Example 11] | ~2 mg/kg | 300 mg/kg | 2.8 mg/kg |
| COc1ccc2c(c1)N(C)C(CNC(=O)c1ccc(C(F)(F)F)cc1)CN=C2c1ccsc1 (stereo not shown) [Example 12] | 32 mg/kg | > 300 mg/kg |  |
| COc1ccc2c(c1)N(C)C(CNC(=O)c1ccsc1)CN=C2c1ccsc1 (stereo not shown) [Example 13] | 32 to 56 mg/kg | 200 mg/kg | 10 mg/kg |
| CN1c2cc3c(cc2C(c2ccsc2)=NCC1CNC(=O)c1cccs1)OCO3 (stereo not shown) [Example 14] | 32 to 56 mg/kg | 100 mg/kg | 5 mg/kg |
| CN1c2ccccc2C(c2ccc(Cl)s2)=NCC1CNC(=O)c1ccc(C#N)cc1 (stereo not shown) [Example 84] | 18 mg/kg | > 300 mg/kg |  |
| Cc1ccsc1C1=NCC(CNC(=O)c2ccoc2)N(C)c2ccccc21 (stereo not shown) [Example 87] | 18 to 32 mg/kg |  | 2.6 mg/kg |
| Cc1ccsc1C1=NCC(CNC(=O)c2ccccc2)N(C)c2ccccc21 (stereo not shown) [Example 88] | 18 to 32 mg/kg |  | 8.3 mg/kg |
| Cc1ccsc1C1=NCC(CNC(=O)c2ccc(C#N)cc2)N(C)c2ccccc21 (stereo not shown) [Example 89] | 10 mg/kg |  |  |
